According to patent US11447493B2 (Kinnate Biopharma Inc., priority 2018, dated 2022):

Key:
Assay type in all cases: biochemical
CDK12 wt/CycK = CDK12 wt/CycK (Homo sapiens (Human), UniProt Q9NYV4); experiment: Radiometric protein kinase assay (33PanQinase), Assay Condition A (thiol containing); settings: thiol containing (1.2 mM DTT), ATP 0.3 μM
In short: (§1)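 Recombinant human kinases assayed radiometrically (33PanQinase) with 33P-ATP incorporation into substrate, 60 min at 30° C, thiol-containing buffer, 1% DMSO final. Ten concentrations from 1×10^−04M to 3×10^−09M tested in singlicate. Residual activity normalized to no-enzyme and no-inhibitor controls; IC50 by least-squares fit.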

CDK12 = CDK12 (Homo sapiens (Human), UniProt Q9NYV4); experiment: Radiometric protein kinase assay (33PanQinase), Assay Condition B (thiol-free); settings: thiol-free (1 mM TCEP)
Experimental: The IC50 profile of compounds was determined using one protein kinase in a customized, thiol free assay. […] Prior to testing, the 1×10^−03 M stock solutions in column 2 of the master plates were subjected to a serial, semi-logarithmic dilution using 100% DMSO as a solvent. […] Column 1 and 7 were filled with 100% DMSO as controls. Subsequently, 2×10 microliter from each well of the serial diluted copy plates were aliquoted with a 96 channel pipettor into two identical sets of “compound dilution plates”. All plates were barcoded for automated identification and tracking purposes. […] All compounds were stored as powder until being solubilized in DMSO. Solubilized compounds were stored as 1×10^−02M/100% DMSO stock solutions. Prior to the assay process, 90 microliters of H2O were added to each well of a set of compound dilution plates. To minimize potential precipitation, the H2O was added to each plate only a few minutes before the transfer of the compound solutions into the assay plates. Each plate was shaken thoroughly, resulting in compound dilution plates with a final of 10% DMSO. For each assay, 5 microliters of solution from each well of the compound dilution plates/10% DMSO were transferred into the assay plate. The final volume of the assay was 50 μl. All compounds were tested at 10 final assay concentrations in the range from 1×10^−05M to 3×10^−10 M, in singlicate. The final DMSO concentration in the reaction cocktails was 1% in all cases. […] This was done so there would be no interference with the key cysteines in the proteins of interest.
For data analysis, the median value of the counts in column 1 (n=8) of each assay plate was defined as “low control”. This value reflects unspecific binding of radioactivity to the plate in the absence of a protein kinase but in the presence of the substrate. The median value of the counts in column 7 of each assay plate (n=8) was taken as the “high control”, i.e. full activity in the absence of any inhibitor. The difference between high and low control was taken as 100% activity. As part of the data evaluation the low control value from a particular plate was subtracted from the high control value as well as from all 80 “compound values” of the corresponding plate. The residual activity (in %) for each well of a particular plate was calculated by using the following formula: Res. Activity (%)=100×[(cpm of compound−low control)/(high control−low control)]
The fitting method used was a least-squares fit.

CDK2/CycA2 = CDK2/CycA2 (Homo sapiens (Human), UniProt P24941); experiment: Radiometric protein kinase assay (33PanQinase), Assay Condition A (thiol containing); settings: thiol containing (1.2 mM DTT), ATP 0.3 μM
In short: as §1

CDK7/CycH/MAT1 = CDK7/CycH/MAT1 (Homo sapiens (Human), UniProt P50613); experiment: as above; settings: thiol containing (1.2 mM DTT), ATP 3.0 μM
In short: as §1

CDK2 = CDK2 (Homo sapiens (Human), UniProt P24941); experiment: Radiometric protein kinase assay (33PanQinase), Assay Condition B (thiol-free); settings: thiol-free (1 mM TCEP)
Experimental: The IC50 profile of compounds was determined using one protein kinase in a customized, thiol free assay. […] Prior to testing, the 1×10^−03 M stock solutions in column 2 of the master plates were subjected to a serial, semi-logarithmic dilution using 100% DMSO as a solvent. […] Column 1 and 7 were filled with 100% DMSO as controls. Subsequently, 2×10 microliter from each well of the serial diluted copy plates were aliquoted with a 96 channel pipettor into two identical sets of “compound dilution plates”. All plates were barcoded for automated identification and tracking purposes. […] All compounds were stored as powder until being solubilized in DMSO. Solubilized compounds were stored as 1×10^−02M/100% DMSO stock solutions. Prior to the assay process, 90 microliters of H2O were added to each well of a set of compound dilution plates. To minimize potential precipitation, the H2O was added to each plate only a few minutes before the transfer of the compound solutions into the assay plates. Each plate was shaken thoroughly, resulting in compound dilution plates with a final of 10% DMSO. For each assay, 5 microliters of solution from each well of the compound dilution plates/10% DMSO were transferred into the assay plate. The final volume of the assay was 50 μl. All compounds were tested at 10 final assay concentrations in the range from 1×10^−05M to 3×10^−10 M, in singlicate. The final DMSO concentration in the reaction cocktails was 1% in all cases. […]
For data analysis, the median value of the counts in column 1 (n=8) of each assay plate was defined as “low control”. This value reflects unspecific binding of radioactivity to the plate in the absence of a protein kinase but in the presence of the substrate. […] The residual activity (in %) for each well of a particular plate was calculated by using the following formula: Res. Activity (%)=100×[(cpm of compound−low control)/(high control−low control)]
The residual activities for each concentration and the compound IC50 values were calculated using Quattro Workflow V3.1.1 (Quattro Research GmbH, Munich, Germany; www.quattro-research.com). […]

Chain of CDK7/CycH/MAT1 (P50613 whole entry): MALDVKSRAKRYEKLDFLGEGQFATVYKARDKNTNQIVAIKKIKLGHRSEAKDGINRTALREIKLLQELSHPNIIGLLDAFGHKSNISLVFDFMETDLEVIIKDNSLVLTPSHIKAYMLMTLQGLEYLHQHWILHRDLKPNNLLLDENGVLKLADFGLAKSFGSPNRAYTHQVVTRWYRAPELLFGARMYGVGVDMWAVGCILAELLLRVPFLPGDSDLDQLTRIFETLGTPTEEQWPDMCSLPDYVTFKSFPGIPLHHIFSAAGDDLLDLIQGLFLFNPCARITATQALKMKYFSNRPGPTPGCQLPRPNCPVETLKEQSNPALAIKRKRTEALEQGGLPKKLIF
Chain of CDK7/CycH/MAT1 (P51946 whole entry partner): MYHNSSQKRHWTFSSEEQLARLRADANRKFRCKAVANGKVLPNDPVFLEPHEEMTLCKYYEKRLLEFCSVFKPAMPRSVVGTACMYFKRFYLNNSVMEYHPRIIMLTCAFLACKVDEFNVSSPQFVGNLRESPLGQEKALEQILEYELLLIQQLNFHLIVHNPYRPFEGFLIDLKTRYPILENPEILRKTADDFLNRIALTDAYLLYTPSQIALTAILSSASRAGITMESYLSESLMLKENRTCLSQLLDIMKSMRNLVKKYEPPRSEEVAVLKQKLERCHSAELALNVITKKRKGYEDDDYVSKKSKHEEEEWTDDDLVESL
Chain of CDK7/CycH/MAT1 (P51948 whole entry partner): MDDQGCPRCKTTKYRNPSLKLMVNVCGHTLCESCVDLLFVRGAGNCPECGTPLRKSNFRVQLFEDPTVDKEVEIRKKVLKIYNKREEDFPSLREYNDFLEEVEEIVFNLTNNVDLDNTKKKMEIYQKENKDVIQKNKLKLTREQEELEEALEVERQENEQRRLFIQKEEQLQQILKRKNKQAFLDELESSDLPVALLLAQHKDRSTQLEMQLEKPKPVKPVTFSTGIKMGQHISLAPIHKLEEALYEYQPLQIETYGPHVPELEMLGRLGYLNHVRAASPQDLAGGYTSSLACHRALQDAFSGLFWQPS
Chain of CDK12 (Q9NYV4 whole entry): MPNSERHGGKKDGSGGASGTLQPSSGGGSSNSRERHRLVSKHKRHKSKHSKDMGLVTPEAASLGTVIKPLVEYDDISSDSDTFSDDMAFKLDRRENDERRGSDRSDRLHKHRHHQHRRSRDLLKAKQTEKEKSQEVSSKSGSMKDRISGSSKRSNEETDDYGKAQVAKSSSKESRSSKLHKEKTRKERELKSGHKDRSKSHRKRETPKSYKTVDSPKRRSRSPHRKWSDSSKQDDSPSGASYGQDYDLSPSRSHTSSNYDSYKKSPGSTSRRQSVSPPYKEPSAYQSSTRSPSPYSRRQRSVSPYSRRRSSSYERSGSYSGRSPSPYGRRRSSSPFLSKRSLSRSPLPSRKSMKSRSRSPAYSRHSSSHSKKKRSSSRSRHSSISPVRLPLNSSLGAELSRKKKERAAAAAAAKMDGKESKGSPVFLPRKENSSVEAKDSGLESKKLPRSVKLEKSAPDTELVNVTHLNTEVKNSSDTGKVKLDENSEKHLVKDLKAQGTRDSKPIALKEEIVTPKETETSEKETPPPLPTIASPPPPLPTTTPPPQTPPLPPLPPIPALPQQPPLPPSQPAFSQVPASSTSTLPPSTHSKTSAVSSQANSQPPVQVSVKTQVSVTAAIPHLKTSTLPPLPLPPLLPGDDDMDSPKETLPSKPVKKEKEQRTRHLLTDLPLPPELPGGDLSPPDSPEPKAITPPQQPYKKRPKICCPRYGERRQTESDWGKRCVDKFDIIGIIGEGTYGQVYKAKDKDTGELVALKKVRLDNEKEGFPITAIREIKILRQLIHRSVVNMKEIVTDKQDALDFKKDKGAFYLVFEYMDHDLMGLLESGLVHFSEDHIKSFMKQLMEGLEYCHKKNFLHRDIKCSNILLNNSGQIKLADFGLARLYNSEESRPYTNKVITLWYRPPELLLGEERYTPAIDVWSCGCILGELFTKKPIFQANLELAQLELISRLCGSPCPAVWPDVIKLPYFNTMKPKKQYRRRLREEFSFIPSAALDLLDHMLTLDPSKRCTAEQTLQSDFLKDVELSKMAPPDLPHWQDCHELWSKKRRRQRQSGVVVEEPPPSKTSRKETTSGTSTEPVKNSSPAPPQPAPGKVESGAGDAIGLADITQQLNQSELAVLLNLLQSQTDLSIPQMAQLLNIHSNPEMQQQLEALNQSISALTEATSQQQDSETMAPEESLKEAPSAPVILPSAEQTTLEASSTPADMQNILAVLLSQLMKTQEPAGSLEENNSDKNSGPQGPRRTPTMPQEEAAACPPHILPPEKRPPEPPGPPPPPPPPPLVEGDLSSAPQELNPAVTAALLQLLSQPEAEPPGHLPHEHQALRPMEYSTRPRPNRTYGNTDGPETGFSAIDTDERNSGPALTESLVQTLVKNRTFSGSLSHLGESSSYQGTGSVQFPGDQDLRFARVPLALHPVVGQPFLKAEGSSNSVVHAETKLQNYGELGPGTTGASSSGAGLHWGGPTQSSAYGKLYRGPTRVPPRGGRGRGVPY
Chain of CDK12 (O75909 whole entry partner): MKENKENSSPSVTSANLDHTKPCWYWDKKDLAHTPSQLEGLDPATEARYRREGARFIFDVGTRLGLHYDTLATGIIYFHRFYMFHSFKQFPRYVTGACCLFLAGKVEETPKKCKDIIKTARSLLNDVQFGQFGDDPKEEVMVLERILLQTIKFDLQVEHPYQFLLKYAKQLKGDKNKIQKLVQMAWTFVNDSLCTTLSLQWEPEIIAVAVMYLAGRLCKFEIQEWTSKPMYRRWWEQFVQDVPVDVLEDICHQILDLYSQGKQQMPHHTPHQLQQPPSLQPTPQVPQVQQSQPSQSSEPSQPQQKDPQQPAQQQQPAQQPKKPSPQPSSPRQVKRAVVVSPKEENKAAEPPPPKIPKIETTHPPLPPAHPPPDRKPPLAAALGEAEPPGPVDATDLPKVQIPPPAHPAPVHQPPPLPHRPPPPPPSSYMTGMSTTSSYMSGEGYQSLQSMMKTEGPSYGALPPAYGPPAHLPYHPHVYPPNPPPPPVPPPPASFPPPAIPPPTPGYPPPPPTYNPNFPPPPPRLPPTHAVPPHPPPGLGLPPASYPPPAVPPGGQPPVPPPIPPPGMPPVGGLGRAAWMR
Chain of CDK12 wt/CycK (Q9NYV4 whole entry): as the sequence (Q9NYV4 whole entry) above
Chain of CDK12 wt/CycK (O75909 whole entry partner): as the sequence (O75909 whole entry partner) above

IC50 (CDK12 wt/CycK) [µM] | IC50 (CDK12) [µM] | IC50 (CDK2/CycA2) [µM] | IC50 (CDK7/CycH/MAT1) [µM] | IC50 (CDK2) [µM] | Structure (SMILES)
≤ 0.1 | < 0.1 |  |  |  | C=CC(=O)Nc1ccc(C(=O)N2CC[C@@H](Nc3ncc4ccc(=O)n(C(C)C)c4n3)C2)cc1 [Example 43, (R)—N-(4-(3-((8-isopropyl-7-oxo-7,8-dihydropyrido[2,3-d]pyrimidin-2-yl)amino)pyrrolidine-1-carbonyl)phenyl)acrylamide]
≤ 0.1 | < 0.1 |  |  |  | C=CC(=O)Nc1ccc(C(=O)N2CC[C@@H](Nc3ncc4cc(F)ccc4n3)C2)cc1 [Example 28, (R)-N-(4-(3-((6-fluoroquinazolin-2-yl)amino)pyrrolidine-1-carbonyl)phenyl)acrylamide]
≤ 0.1 | < 0.1 |  |  |  | C=CC(=O)Nc1ccc(C(=O)N2CC[C@@H](Nc3ncc4ccc(C#N)cc4n3)C2)cc1 [Example 37, (R)—N-(4-(3-((7-cyanoquinazolin-2-yl)amino)pyrrolidine-1-carbonyl)phenyl)acrylamide]
≤ 0.1 | < 0.1 |  |  |  | C=CC(=O)Nc1ccc(C(=O)N2CC[C@@H](Nc3ncc4ccc(OC)cc4n3)C2)cc1 [Example 34, (R)-N-(4-(3-((7-methoxyquinazolin-2-yl)amino)pyrrolidine-1-carbonyl)phenyl)acrylamide]
≤ 0.1 | < 0.1 |  |  |  | C=CC(=O)Nc1ccc(C(=O)N2CC[C@@H](Nc3ncc4ccccc4n3)C2)cc1 [Example 26, (R)-N-(4-(3-(quinazolin-2-ylamino)pyrrolidine-1-carbonyl)phenyl)acrylamide]
≤ 0.1 | < 0.1 |  |  |  | C=CC(=O)Nc1ccc(C(=O)N2CC[C@@H](Nc3ncc4ccc(S(C)(=O)=O)cc4n3)C2)cc1 [Example 33, (R)-N-(4-(3-((7-(methylsulfonyl)quinazolin-2-yl)amino)pyrrolidine-1-carbonyl)phenyl)acrylamide]
≤ 0.1 |  | ≤ 0.1 | 0.1 to 1 |  | CCC(=O)Nc1ccc(C(=O)N2CC[C@@H](Nc3ncc4ccc(C(=O)O)cc4n3)C2)cc1 [Example 56, (R)-2-((1-(4-propionamidobenzoyl)pyrrolidin-3-yl)amino)quinazoline-7-carboxylic Acid]
≤ 0.1 | < 0.1 |  |  |  | C=CC(=O)Nc1ccc(C(=O)N2CC[C@@H](Nc3ncc4ccccc4n3)C2)cc1F [Example 62, (R)—N-(2-fluoro-4-(3-(quinazolin-2-ylamino)pyrrolidine-1-carbonyl)phenyl)acrylamide]
1 to 10 |  | 1 to 10 | 10 to 30 |  | C=CC(=O)Nc1ccc(C(=O)N2CC(Nc3ncc4ccccc4n3)C2)cc1 [Example 64, N-(4-(3-(quinazolin-2-ylamino)azetidine-1-carbonyl)phenyl)acrylamide]
1 to 10 |  | 30 to 100 | 30 to 100 |  | C=CC(=O)Nc1ccc(C(=O)N2CCC[C@@H](Nc3ncc4ccc(F)cc4n3)C2)cc1 [Example 5, (R)-N-(4-(3-((7-fluoroquinazolin-2-yl)amino)piperidine-1-carbonyl)phenyl)acrylamide]
1 to 10 |  | 10 to 30 | 30 to 100 |  | CCC(=O)Nc1ccc(C(=O)N2CC[C@@H](Nc3ncc4cc(OC)ccc4n3)C2)cc1 [Example 48, (R)—N-(4-(3-((6-methoxyquinazolin-2-yl)amino)pyrrolidine-1-carbonyl)phenyl)propionamide]
30 to 100 |  | 30 to 100 | 30 to 100 |  | C=CC(=O)Nc1ccc(C(=O)N2CCC[C@@H](Nc3ncc4cc(OC)ccc4n3)C2)cc1 [Example 7, (R)-N-(4-(3-((6-methoxyquinazolin-2-yl)amino)piperidine-1-carbonyl)phenyl)acrylamide]
1 to 10 |  | 10 to 30 | 30 to 100 |  | C=CC(=O)Nc1ccc(C(=O)N2CCC[C@@H](Nc3ncc4ccc(S(C)(=O)=O)cc4n3)C2)cc1 [Example 11, (R)-N-(4-(3-((7-(methylsulfonyl)quinazolin-2-yl)amino)piperidine-1-carbonyl)phenyl)acrylamide]
 |  | 1 to 10 |  | 1 to 10 | C=CC(=O)N(C)c1ccc(C(=O)N2CC[C@@H](Nc3ncc4ccccc4n3)C2)cc1 [Example 74, (R)—N-methyl-N-(4-(3-(quinazolin-2-ylamino)pyrrolidine-1-carbonyl)phenyl)acrylamide]
0.1 to 1 |  | 1 to 10 | 1 to 10 |  | CCC(=O)Nc1ccc(C(=O)N2CC[C@@H](Nc3ncc4cc(Cl)ccc4n3)C2)cc1 [Example 47, (R)—N-(4-(3-((6-chloroquinazolin-2-yl)amino)pyrrolidine-1-carbonyl)phenyl)propionamide]
1 to 10 |  | 30 to 100 | 10 to 30 |  | C=CC(=O)Nc1ccc(C(=O)N2C[C@H](Nc3ncc4ccccc4n3)[C@@H](C)C2)cc1 [Example 96, N-(4-((3S,4R)-3-methyl-4-(quinazolin-2-ylamino)pyrrolidine-1-carbonyl)phenyl)acrylamide]
10 to 30 |  | 30 to 100 | 30 to 100 |  | C=CC(=O)Nc1ccc(C(=O)N2CCC[C@@H](Nc3ncc4ccc(=O)[nH]c4n3)C2)cc1 [Example 16, (R)-N-(4-(3-((7-oxo-7,8-dihydropyrido[2,3-d]pyrimidin-2-yl)amino)piperidine-1-carbonyl)phenyl)acrylamide]
≤ 0.1 |  | 0.1 to 1 | 1 to 10 |  | C=CC(=O)Nc1ccc(C(=O)N2CC[C@@H](Nc3ncc4cc(Cl)ccc4n3)C2)cc1 [Example 25, (R)-N-(4-(3-((6-chloroquinazolin-2-yl)amino)pyrrolidine-1-carbonyl)phenyl)acrylamide]
≤ 0.1 |  | ≤ 0.1 | 0.1 to 1 |  | C=CC(=O)Nc1ccc(C(=O)N2CC[C@@H](Nc3ncc4ccc(C(N)=O)cc4n3)C2)cc1 [Example 39, (R)-2-((1-(4-acrylamidobenzoyl)pyrrolidin-3-yl)amino)quinazoline-7-carboxamide]
≤ 0.1 |  | ≤ 0.1 | 0.1 to 1 |  | CCC(=O)Nc1ccc(C(=O)N2CC[C@@H](Nc3ncc4ccc(C(=O)N(C)C)cc4n3)C2)cc1 [Example 59, (R)—N,N-dimethyl-2-((1-(4-propionamidobenzoyl)pyrrolidin-3-yl)amino)quinazoline-7-carboxamide]
0.1 to 1 |  | 1 to 10 | 1 to 10 |  | C=CC(=O)Nc1ccc(C(=O)N2CC[C@@H](Nc3ncc4cc(C)ccc4n3)C2)cc1 [Example 30, (R)-N-(4-(3-((6-methylquinazolin-2-yl)amino)pyrrolidine-1-carbonyl)phenyl)acrylamide]
0.1 to 1 | 0.1 to 1 |  |  |  | CCC(=O)Nc1ccc(C(=O)N2CC[C@@H](Nc3ncc4ccccc4n3)C2)cc1 [Example 44, (R)—N-(4-(3-(quinazolin-2-ylamino)pyrrolidine-1-carbonyl)phenyl)propionamide]

Structure (SMILES) | IC50 (CDK12 wt/CycK) [µM] | IC50 (CDK12) [µM] | IC50 (CDK2/CycA2) [µM] | IC50 (CDK7/CycH/MAT1) [µM] | IC50 (CDK2) [µM]
CN(C)C/C=C/C(=O)Nc1ccc(C(=O)N2CCC[C@@H](Nc3ncc4ccccc4n3)C2)cc1 [Example 66, (R,E)-4-(dimethylamino)-N-(4-(3-(quinazolin-2-ylamino)piperidine-1-carbonyl)phenyl)but-2-enamide] | 1 to 10 |  | 30 to 100 | 30 to 100 | 
C=CC(=O)Nc1ccc(C(=O)N2CCC[C@@H](Nc3ncc4ccc(=O)n(C(C)C)c4n3)C2)cc1 [Example 15, (R)-N-(4-(3-((8-isopropyl-7-oxo-7,8-dihydropyrido[2,3-d]pyrimidin-2-yl)amino)piperidine-1-carbonyl)phenyl)acrylamide] | 1 to 10 |  | 10 to 30 | 30 to 100 | 
